Reference: paper PMC11755562, “Peptide Inhibitor Assay for Allocating Functionally Important Accessible Sites Throughout a Protein Chain: Restriction Endonuclease EcoRI as a Model Protein System” (BioTech, 2024)
“Also recorded” adds a separate entry of the source.

Experiments:
EcoRI [1] = molecular target: T1, EcoRI (Escherichia coli, UniProt P00642); assay: Peptide inhibitor assay (PIA): EcoRI digestion of pCRII-TOPO-OR23 plasmid, fluorescence intensity of the excised OR23 band on agarose gel; assay type: biochemical; conditions: for inhibitory effect compared with the original peptide (in words) / level of inhibitory effect on EcoRI (in words) / relative fluorescence intensity of excised OR23 fragment / significance of inhibition of EcoRI activity versus no peptide: 3 h; for inhibitory effect compared with the original peptide (in words): EcoRI:peptide 1:500, randomized peptides by Student's t-test versus each endogenous BP; for inhibitory effect compared with the original peptide (in words) / level of inhibitory effect on EcoRI (in words) / significance of inhibition of EcoRI activity versus no peptide / inhibitory effect, fluorescence intensity versus incubation time (in words) / concentration dependence of the inhibitory effect: n = 3; for level of inhibitory effect on EcoRI (in words): EcoRI:peptide 1:500, relative fluorescence intensity; for relative fluorescence intensity of excised OR23 fragment: relative to no peptide, EcoRI:peptide 1:500 molar ratio, 37 °C, 0.015 mM Mg2+, mean of n = 3; for significance of inhibition of EcoRI activity versus no peptide: EcoRI:peptide 1:500, Dunnett's test versus no peptide; for inhibitory effect, fluorescence intensity versus incubation time (in words): time course until 5 h, EcoRI:peptide 1:500, compared with no peptide; for concentration dependence of the inhibitory effect: ×5 to ×500 molar equivalence to EcoRI, fixed time point 3 h
T1 construct: The first M is removed after translation in this protein; purchased New England Biolabs
Procedure: Peptide synthesis was performed by GenScript Japan (Tokyo, Japan). All peptides were confirmed to be more than 75% pure via high-performance liquid chromatography (HPLC) and to have theoretical molecular weights via mass spectrometry (MS). The peptides were dissolved in DMSO (dimethyl sulfoxide) and were prepared at 5.59 × 10^−9 mol/μL (5.59 mM). When 1.0 μL of this peptide mixture was mixed in a tube for the inhibition of EcoRI catalytic activity, the molar ratio of EcoRI to peptide was 1:500. This concentration in molar equivalence was used throughout this study unless otherwise noted.
Purified and concentrated EcoRI (20,000 U/mL, approximately 338 μg/mL, 1.12 × 10^−[…]) was obtained from New England Biolabs (Ipswich, MA, USA). To quantify and visualize the inhibitory effects of the peptides, the enzymatic reaction conditions were set so that at least three hours of incubation were required to completely digest the substrate plasmid DNA with EcoRI. To do so, we used a low Mg^2+ concentration (0.015 mM) in the reaction mixture in contrast to the optimum concentration of Mg^2+ for EcoRI (10 mM).
(§1) All master solutions and samples were prepared on ice. A single reaction tube contained the following common ingredients: autoclaved DNase-free RNase-free deionized H2O (12.5 μL) (Nippon Gene), 10× NE Buffer Mg^2+-free (2.0 μL), pCRII-TOPO-OR23 plasmid DNA (2.0 μL of 40 ng/μL solution), MgCl2 (1.5 μL of 0.20 mM solution), and EcoRI (1.0 μL). A master solution containing these ingredients without DMSO or a peptide was first prepared for the number of sample tubes. The master solution was aliquoted into 1.5 mL spin tubes (19.0 μL per tube). Then, 1.0 μL of DMSO or a peptide sample was added, and the mixture was incubated at 37 °C. A negative control with DMSO but without a peptide (“no peptide” control) was run in every assay. When the digestion efficiency was compared, another negative control with autoclaved DNase-free RNase-free H2O without EcoRI was prepared. After the reaction, the samples were quickly cooled on ice for ten minutes and then stored at −80 °C until agarose gel electrophoresis. The above protocol was conducted for all peptides (including BP19.5, BP19.5N, and BP19.5C) used in the present study unless otherwise noted.
To quantify EcoRI activity after incubation of a reaction mixture, digested pCRII-TOPO-OR23 plasmid DNA was examined via agarose gel electrophoresis. We first prepared a 25 mL solution of 1.0% agarose (Nippon Gene) in TAE (Tris-acetate-EDTA) buffer (Promega, Madison, WI, USA) to produce an agarose gel. An ethidium bromide solution (0.5 μL of 10 mg/mL) (Promega) was added before gelation. After incubation with EcoRI, the fluorescence intensity of the band of the excised OR23 fragment was measured via an ImageQuant LAS4000 (GE Healthcare Japan, Tokyo, Japan) with the following conditions: “Exposure Type”: Precision; “Exposure Time”: Manual 1/8 sec; “Sensitivity/Resolution”: Standard; and “Fluorescent Method”: Epi illumination; EtBr; UV (Trans UV) light; 6-5DF50 Filter; and F2.8 Iris.
For statistical analyses, Student’s t-test (unpaired and bi-sided), Dunnett’s test, and Pearson correlation analysis were performed via Microsoft Excel (Office 365) and JSTAT (Yokohama, Japan). The Dunnett’s test was performed for each experimental group that was examined simultaneously in the laboratory, in comparison to the “no peptide” control group that was examined simultaneously. The repeated measure mode of the Dunnett’s test was used on the assumption that there was no interaction between samples.

EcoRI [2] = molecular target: T1, EcoRI; assay: Nonspecific nuclease activity of EcoRI reaction mixture with peptide (plasmid DNA degradation); assay type: biochemical; conditions: EcoRI plus peptide 1:500, 3 h, n = 3
Procedure: A recombinant plasmid, pCRII-TOPO (Invitrogen, Waltham, MA, USA), containing a PCR fragment of the full-length cDNA (978 bp) of the mouse odorant receptor OR23 [82, 83, 84, 85, 86] at the EcoRI cloning site (GAATTC) was used as a DNA substrate for EcoRI. […] This pCRII-TOPO-OR23 plasmid was prepared from TOP10F’ Escherichia coli (Invitrogen) using ATP Plasmid Mini Kit (ATP Biotech, Taipei, ROC). The plasmid solution was prepared at 40 ng/μL by adding autoclaved DNase-free RNase-free deionized H2O (Nippon Gene, Tokyo, Japan). The DNA concentrations were measured with a Qubit fluorometer (Invitrogen).
as §1
This reaction mixture containing EcoRI and BP19.5 appeared to degrade the plasmid DNA entirely. […] The DNA concentration at 3 h was 3.297 ± 0.006 ng/μL without any peptide in the reaction mixture and 0.332 ± 0.003 ng/μL with BP19.5, indicating a statistically significant difference (n = 3; unpaired bi-sided Student’s t-test; p = 1.6 × 10^−11). […] Therefore, BP19.5 and its derivatives are likely to cause EcoRI to become a nonspecific nuclease. In other words, BP19.5 was likely a specificity/activity modifier of EcoRI instead of an inhibitor.

T1 sequence (P00642 2-277): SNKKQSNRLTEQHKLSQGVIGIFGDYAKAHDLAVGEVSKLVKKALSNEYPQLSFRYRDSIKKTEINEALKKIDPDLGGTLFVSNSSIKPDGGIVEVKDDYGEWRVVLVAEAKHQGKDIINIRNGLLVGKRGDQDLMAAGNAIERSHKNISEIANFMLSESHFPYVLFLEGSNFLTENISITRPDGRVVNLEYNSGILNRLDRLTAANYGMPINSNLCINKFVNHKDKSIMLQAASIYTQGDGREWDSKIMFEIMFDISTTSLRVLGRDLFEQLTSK

## EALDIAMGRNSA [BP13R1]
EcoRI [1]
  inhibitory effect compared with the original peptide (in words): significantly more inhibitory

## VVNLEYNSGILN [BP17.5]
EcoRI [1]
  level of inhibitory effect on EcoRI (in words): not very inhibitory

## NISEIA [BP14M]
EcoRI [1]
  level of inhibitory effect on EcoRI (in words): noninhibitory

## DLMAAGNAIERS [BP13]
EcoRI [1]
  level of inhibitory effect on EcoRI (in words): not very inhibitory

## VEGQELAVKAHRWV [BP10R1]
EcoRI [1]
  inhibitory effect compared with the original peptide (in words): significantly more inhibitory

## YVLFLE [BP15C]
EcoRI [1]
  level of inhibitory effect on EcoRI (in words): most effective
  inhibitory effect compared with the original peptide (in words): more inhibitory than the original BP15
  relative fluorescence intensity of excised OR23 fragment: less than 0.3

## LDRLTAANYGM [BP18.5]
EcoRI [1]
  level of inhibitory effect on EcoRI (in words): noninhibitory

## KRGDQDLMAAG [BP12.5]
EcoRI [1]
  level of inhibitory effect on EcoRI (in words): not very inhibitory

## NLCINK [BP19.5C, deletion peptide from BP19.5]
EcoRI [2]
  plasmid DNA degradation / nonspecific nuclease induction (agarose gel electrophoresis, in words): no DNA was detected; also recorded: induced such nuclease activity

## EQHKLSQGVIGI [BP2]
EcoRI [1]
  significance of inhibition of EcoRI activity versus no peptide: significantly inhibitory
  level of inhibitory effect on EcoRI (in words): highly inhibitory; also recorded: most effective
  relative fluorescence intensity of excised OR23 fragment: less than 0.3

## IKKTEI [BP6N]
EcoRI [1]
  inhibitory effect compared with the original peptide (in words): as inhibitory as the original BP6

## KPDGGIVEVKDDYG [BP9]
EcoRI [1]
  level of inhibitory effect on EcoRI (in words): not very inhibitory

## EIANFM [BP14C]
EcoRI [1]
  inhibitory effect compared with the original peptide (in words): as inhibitory as the original BP14

## RNGLLVGKRGDQD [BP12]
EcoRI [1]
  significance of inhibition of EcoRI activity versus no peptide: significantly inhibited EcoRI activity

## AAGNAI [BP13M]
EcoRI [1]
  level of inhibitory effect on EcoRI (in words): noninhibitory

## VGLILSTGDFDP [BP7R1]
EcoRI [1]
  inhibitory effect compared with the original peptide (in words): as inhibitory as the original peptides

## NAIERSHKNIS [BP13.5]
EcoRI [1]
  level of inhibitory effect on EcoRI (in words): not very inhibitory

## NGLLVG [BP12N]
EcoRI [1]
  inhibitory effect compared with the original peptide (in words): more inhibitory than the original

## TRPDGRVVNLEY [BP17]
EcoRI [1]
  level of inhibitory effect on EcoRI (in words): not very inhibitory

## PINSNL [BP19.5N, deletion peptide from BP19.5]
EcoRI [2]
  plasmid DNA degradation / nonspecific nuclease induction (agarose gel electrophoresis, in words): no DNA was detected; also recorded: induced such nuclease activity

## SSIKPDGGIVE [BP8.5]
EcoRI [1]
  level of inhibitory effect on EcoRI (in words): not very inhibitory

## NEYPQLAFRYRDS [BP5]
EcoRI [1]
  significance of inhibition of EcoRI activity versus no peptide: significantly inhibitory
  level of inhibitory effect on EcoRI (in words): highly inhibitory; also recorded: most effective
  relative fluorescence intensity of excised OR23 fragment: less than 0.3

## VKDDYG [BP9C]
EcoRI [1]
  level of inhibitory effect on EcoRI (in words): noninhibitory

## LSQGVIGIFGDY [BP2.5]
EcoRI [1]
  level of inhibitory effect on EcoRI (in words): notable
  relative fluorescence intensity of excised OR23 fragment: less than 0.3

## EWRVVL [BP10N]
EcoRI [1]
  level of inhibitory effect on EcoRI (in words): noninhibitory

## SHKNISEIANFM [BP14]
EcoRI [1]
  significance of inhibition of EcoRI activity versus no peptide: significantly inhibited EcoRI activity
  level of inhibitory effect on EcoRI (in words): especially notable; also recorded: moderate inhibitory effect
  inhibitory effect, fluorescence intensity versus incubation time (in words): relatively high inhibitory effects
  concentration dependence of the inhibitory effect: concentration dependent

## STTSLRVLGRDLFE [BP24]
EcoRI [1]
  level of inhibitory effect on EcoRI (in words): did not work well

## FVSNSSIKPDGG [BP8]
EcoRI [1]
  level of inhibitory effect on EcoRI (in words): noninhibitory
  inhibitory effect, fluorescence intensity versus incubation time (in words): relatively low inhibitory effects

## DGLTPFSDVLGI [BP7R2]
EcoRI [1]
  inhibitory effect compared with the original peptide (in words): significantly less inhibitory

## EAKHQGKDIIN [BP10.5]
EcoRI [1]
  level of inhibitory effect on EcoRI (in words): not very inhibitory

## LAMRGASIADEN [BP13R2]
EcoRI [1]
  inhibitory effect compared with the original peptide (in words): significantly less inhibitory

## VIGIFGDYAKAHDL [BP3]
EcoRI [1]
  significance of inhibition of EcoRI activity versus no peptide: significantly inhibitory
  level of inhibitory effect on EcoRI (in words): highly inhibitory; also recorded: most effective
  relative fluorescence intensity of excised OR23 fragment: less than 0.3

## LGRDLFEQLTSK [BP25]
EcoRI [1]
  level of inhibitory effect on EcoRI (in words): especially notable; also recorded: most inhibitory; also recorded: most effective
  relative fluorescence intensity of excised OR23 fragment: less than 0.3

## AVGEVSKLVKKALS [BP4]
EcoRI [1]
  significance of inhibition of EcoRI activity versus no peptide: significantly inhibitory

## GREWDSKIMFEIMF [BP22]
EcoRI [1]
  significance of inhibition of EcoRI activity versus no peptide: significantly inhibited EcoRI activity
  level of inhibitory effect on EcoRI (in words): especially notable
  inhibitory effect, fluorescence intensity versus incubation time (in words): relatively high inhibitory effects
  concentration dependence of the inhibitory effect: concentration dependent

## EGSNFLTENISI [BP16]
EcoRI [1]
  level of inhibitory effect on EcoRI (in words): highly inhibitory; also recorded: most effective
  relative fluorescence intensity of excised OR23 fragment: less than 0.3

## IDPDLG [BP7N]
EcoRI [1]
  level of inhibitory effect on EcoRI (in words): noninhibitory

## IKKTEINEALKKID [BP6]
EcoRI [1]
  significance of inhibition of EcoRI activity versus no peptide: significantly inhibited EcoRI activity
  level of inhibitory effect on EcoRI (in words): especially notable

## EWRVVLVAEAKHQG [BP10]
EcoRI [1]
  level of inhibitory effect on EcoRI (in words): not very inhibitory

## PINSNLCINK [BP19.5]
EcoRI [2]
  plasmid DNA degradation / nonspecific nuclease induction (agarose gel electrophoresis, in words): no DNA fragment or plasmid DNA was detected
EcoRI [2]; no peptide 3.297 ± 0.006
  DNA concentration at 3 h in the reaction mixture: 0.332 ± 0.003 ng/µL

## VNHKDKSIMLQA [BP20.5]
EcoRI [1]
  level of inhibitory effect on EcoRI (in words): did not show high inhibition

## GIVEVK [BP9M]
EcoRI [1]
  inhibitory effect compared with the original peptide (in words): more inhibitory than the original

## FRYRDSIKKTEI [BP5.5]
EcoRI [1]
  level of inhibitory effect on EcoRI (in words): least inhibitory; also recorded: noninhibitory

## SHKNIS [BP14N]
EcoRI [1]
  level of inhibitory effect on EcoRI (in words): noninhibitory

## AGRKQEVHAVWVEL [BP10R2]
EcoRI [1]
  inhibitory effect compared with the original peptide (in words): as inhibitory as the original peptides

## SNKKQSNRLTEQHK [BP1]
EcoRI [1]
  significance of inhibition of EcoRI activity versus no peptide: significantly inhibitory
  level of inhibitory effect on EcoRI (in words): reasonably inhibitory

## NSGILNRLDRLTA [BP18]
EcoRI [1]
  level of inhibitory effect on EcoRI (in words): especially notable; also recorded: most effective
  relative fluorescence intensity of excised OR23 fragment: less than 0.3
